In patent US20240016901A1, “COMPOSITIONS AND METHODS FOR PREVENTING AND TREATING SARS-COV-2 INFECTION” (priority 2020, published 2024):
pEC50, pIC50: −log10 of the molar value. Read-outs that look alike come from different tables or passages of the source.

Legend:
[1] = test system: SARS-CoV-2; assay: microbe, parasite or virus in culture; type: cell-based; conditions: for pIC50: read-out: IC50 against SARS-CoV-2 infection
[2] = test system: SARS-CoV-2; conditions: Gordon et al. 2020; cited from earlier work
[3] = test system: SigmaR2; conditions: literature value (Diaz et al. 2012); cited from earlier work
[4] = test system: Huh-7 cells
[5] = test system: SigmaR1; conditions: read-out: SigmaR1 IC50; literature values (Moebius et al. 1997; Diaz et al. 2012); cited from earlier work
[6] = Severe acute respiratory syndrome coronavirus 2, Huh-7
[7] = Severe acute respiratory syndrome coronavirus 2, Huh-7 cells, MOI 0.2, 10-point two-fold dilution dose response in triplicate
[8] = Severe acute respiratory syndrome coronavirus 2, Huh-7 cells

## COc1cc(Nc2c(C#N)cnc3cc(OCCCN4CCN(C)CC4)c(OC)cc23)c(Cl)cc1Cl [Bosutinib]
[1]; [6]
  pEC50: 7.55

## C[C@@](Cc1ccc(O)c(O)c1)(NN)C(=O)O [Carbidopa]
[1]; Huh-7 cells
  exacerbation of SARS-CoV-2 infection: exacerbate SARS-CoV-2 infection

## CC(C)N=c1cc2n(-c3ccc(Cl)cc3)c3ccccc3nc-2cc1Nc1ccc(Cl)cc1 [Clofazamine]
[1]
  pEC50: 6.98

## C=C1[C@H](CO)[C@@H](O)C[C@@H]1n1cnc2c(=O)[nH]c(N)nc21 [Entecavir]
[1]; [7]
  pEC50: 6.70

## Cc1cnc(Nc2ccc(OCCN3CCCC3)cc2)nc1Nc1cccc(S(=O)(=O)NC(C)(C)C)c1 [Fedratinib]
[1]; [7]
  pEC50: 7.60
[1]; [8]
  pIC50: 7.60

## CCc1nc(C(N)=O)c(Nc2ccc(N3CCC(N4CCN(C)CC4)CC3)c(OC)c2)nc1NC1CCOCC1 [Gilteritinib]
[1]; [7]
  pEC50: 6.68

## O=C(NC1CCN(CCCCC2(C(=O)NCC(F)(F)F)c3ccccc3-c3ccccc32)CC1)c1ccccc1-c1ccc(C(F)(F)F)cc1 [Lomitapide]
[1]; [7]
  pEC50: 5.80

## CCN(CC)CCNC(=O)c1cc(Cl)c(N)cc1OC [Metoclopramide]
[1]; Huh-7 cells
  antiviral activity against SARS-CoV-2 (in words): dose dependent antiviral activity
[1]; [7]
  pEC50: 6.33

## O=C(Nc1ccc([N+](=O)[O-])cc1Cl)c1cc(Cl)ccc1O [Niclosamide]
[1]; [7]
  pEC50: 6.85

## CCC(CC)COC(=O)[C@H](C)N[P@](=O)(OC[C@H]1O[C@@](C#N)(c2ccc3c(N)ncnn23)[C@H](O)[C@@H]1O)Oc1ccccc1 [Remdesivir]
[1]; [6]
  pEC50: 7.02

## Cc1cc(OCCN2CCOCC2)nn1-c1ccc2ccccc2c1 [S1RA, 4-{2-[5-methyl-1-(naphthalen-2-yl)-1H-pyrazol-3-yloxy]ethyl}morpholine]
[2]
  antiviral activity in Vero-E6 cells: not observed
[1]; [7]
  pEC50: 6.65
[1]; [8]
  pIC50: 6.65
[3]
  pIC50: < 6.00
[4]
  cell toxicity: limited cell toxicity
[5]
  pIC50: 7.77

## Nc1nc2nc[nH]c2c(=S)[nH]1 [Thioguanine]
[1]; [7]
  pEC50: 6.63

## COc1ccc(CCN(C)CCCC(C#N)(c2ccc(OC)c(OC)c2)C(C)C)cc1OC (stereo not shown) [Verapamil]
[1]; [6]
  pEC50: 6.34

## CC(NC(=O)[C@H](Cc1ccccc1)NC(=O)OCc1ccccc1)C(=O)CF (stereo partly shown) [Z-FA-FMK]
[1]
  pEC50: 6.97
[1]; Huh-7 cells
  antiviral activity against SARS-CoV-2 (in words): potent antiviral activity

## CC(C)(C#N)c1cc(Cn2cncn2)cc(C(C)(C)C#N)c1 [anastrozole]
[1]; Huh-7 cells
  exacerbation of SARS-CoV-2 infection: exacerbate SARS-CoV-2 infection

## C[C@@H]1CCN(C(=O)CC#N)C[C@@H]1N(C)c1ncnc2[nH]ccc12 [tofacitinib]
[1]; Huh-7 cells
  antiviral activity against SARS-CoV-2 (in words): the latter was the only one active

## transferrin: the protein transferrin (Sigma Aldrich, T2036)
[1]; Huh-7 cells, protein at 2.3 μM, FIG. 6E
  anti-SARS-CoV-2 activity, percentage of infected Huh-7 cells: devoid of any anti-SARS-CoV-2 activity
